Experimental data reported in publication PMC5937083, “Physicochemical, Stress Degradation Evaluation and Pharmacokinetic Study of AZGH101; a New Synthesized COX2 Inhibitor after I.V. and Oral Administration in Male and Female Rats” (Iranian Journal of Pharmaceutical Research : IJPR, 2018).
Values after ≈ are worked out from the molar mass of the structure shown. Read-outs that look alike come from different tables or passages of the source. Each block holds one molecule with its values, some of them ahead of it.

Tests used:
[1] = cited from earlier work
COX-2 = conditions: cited from earlier work
[2] = Pharmacokinetic study after oral and intravenous administration to Wistar rats; assay type: in vivo; conditions: for k el: Wistar, read-out: β (elimination rate constant) (converted); for bioavailability: oral 20 mg/kg vs intravenous 10 mg/kg; for half-life: read-out: t1/2 β (converted)
Experimental: Male and female Wistar rats weighting 250 ± 10 g were used. They were kept at 25 ± 1 °C temperature and controlled humidity with 12 h light/dark cycle. The animals were fasted overnight before the experiment and had free access to water. The study protocol was approved by the local committee for animal experiments of Shahid Beheshti University of Medical Sciences (Tehran, Iran).
Male or female rats were chosen randomly (6 rats/group) and assigned to receive […] solution in normal saline for intravenous (IV) via the tail vein or oral administration via oral gavages. The administered doses in both sexes for intravenous (IV) and oral studies were 10 mg/kg and 20 mg/kg, respectively. Blood samples were collected from the tail vein immediately prior to administration (blank sample) and at 0.08, 0.25, 0.5, 1, 2, 4, 6, 8, 10, 21 and 22 h after administration into heparinized micro-tubes. Blood samples were centrifuged at 1000 g for 10 min and the separated plasmas were kept at –20 °C until analysis.
Pharmacokinetic analyses were performed using WinNonlin software (Pharsight Corporation, Mountain View, USA, Version 3.2) and two-compartmental model was chosen. The following pharmacokinetic parameters were estimated: terminal elimination half-life (t1/2), area under the plasma concentration versus time curve from zero to the infinity (AUC 0-∞), distribution and elimination rate constants (α, β), volume of distribution (Vd), and total body clearance (CL). The peak plasma concentration (Cmax) and the time to reach Cmax (Tmax) for oral dose were obtained directly from the observed individual plasma concentration-time data.

[3] = Aqueous solubility (OECD Guideline No. 105); assay type: physicochemical; conditions: water; 3 replications
Experimental: (§1) Melting point was determined with an Electrothermal 9200 apparatus (UK). Aqueous solubility and octanol/water partition coefficient of the synthesized derivative was determined according to Organisation for Economic Co-operation and Development (OECD) Guideline for Testing of Chemicals, No.105, and No. 107 respectively ([11]-[13]).

[4] = Forced degradation stability study (ICH guideline for new drug substance); assay type: physicochemical; conditions: for Forced tests results, Mean ±SD: fraction recovered intact, 3 replications
Experimental: The stability study was conducted according to forced degradation protocol ICH guideline for new drug substance ([14]-[16]). In brief, the stability of AZGH101 at acidic, basic, and neutral medium was evaluated. Moreover, the effect of oxidative condition (H2O2, 3 and 30%), thermal degradation at solid state, and photolysis on the stability of AZGH101 was examined.

[5] = Octanol/water partition coefficient, log P (OECD Guideline No. 107); assay type: physicochemical; conditions: n = 3, read-out: log P (logarithm of octanol/water partition coefficient)
Experimental: as §1

[6] = 'It was reported'; cited from earlier work
[7] = oral 20 mg/kg, female Wistar rats
[8] = oral 20 mg/kg, male Wistar rats
[9] = rat, plasma, intravenous 10 mg/kg, female Wistar rats
[10] = rat, plasma, intravenous 10 mg/kg, male Wistar rats
[11] = rat, plasma, oral 20 mg/kg, female Wistar rats
[12] = rat, plasma, oral 20 mg/kg, male Wistar rats

Structure (SMILES): CC(C(=O)O)c1cccc(C(=O)c2ccccc2)c1 (stereo not drawn) [ketoprofen]
log P [1]: 3.1

k el ([2]; female, rat, plasma, iv, 10 mg/kg, intravenous 10 mg/kg, female Wistar rats): 9.72e-05 s⁻¹
k el ([2]; female, rat, plasma, po, 20 mg/kg, oral 20 mg/kg, female Wistar rats): 3.61e-05 s⁻¹
α (distribution rate constant) ([2]; intravenous 10 mg/kg, female Wistar rats): 3.70 ± 0.80 h⁻¹
β (elimination rate constant) ([2]; intravenous 10 mg/kg, female Wistar rats, 10 mg/kg): 0.355 ± 0.006 h⁻¹
α (distribution rate constant) ([2]; intravenous 10 mg/kg, male Wistar rats): 4.25 ± 0.99 h⁻¹
β (elimination rate constant) ([2]; intravenous 10 mg/kg, male Wistar rats, 10 mg/kg): 0.349 ± 0.008 h⁻¹
k el ([2]; male, rat, plasma, iv, 10 mg/kg, intravenous 10 mg/kg, male Wistar rats): 9.72e-05 s⁻¹
k el ([2]; male, rat, plasma, po, 20 mg/kg, oral 20 mg/kg, male Wistar rats): 3.89e-05 s⁻¹
Cl [2, 7]: 31.73 ± 3.31 mL/h
Ka [2, 7]: 1.00 ± 0.10 h⁻¹
Vd [2, 7]: 245.87 ± 44.86 mL
α (distribution rate constant) [2, 7]: 3.86 ± 2.99 h⁻¹
Cl [2, 8]: 32.45 ± 1.65 mL/h
Ka [2, 8]: 0.92 ± 0.18 h⁻¹
Vd [2, 8]: 233.55 ± 27.82 mL
α (distribution rate constant) [2, 8]: 3.34 ± 1.26 h⁻¹
bioavailability ([2]; rat, plasma, Wistar rats, both sexes, read-out: oral absolute bioavailability): ~27%
AUC(0-inf) [2, 9]: 79400 ± 5810 ng·h/mL
C0 [2, 9]: 86.8 ± 11.3 µg/mL
clearance [2, 9]: 0.527 mL/min
Vd ([2]; rat, plasma, intravenous 10 mg/kg, female Wistar rats, read-out: Vd): 89.3 ± 7.68 mL
half-life [2, 9]: 1.97 ± 0.06 h
AUC(0-inf) [2, 10]: 77100 ± 3620 ng·h/mL
C0 [2, 10]: 92.3 ± 11 µg/mL
clearance [2, 10]: 0.541 mL/min
Vd ([2]; rat, plasma, intravenous 10 mg/kg, male Wistar rats, read-out: Vd): 94.1 ± 6.42 mL
half-life [2, 10]: 2.01 ± 0.04 h
bioavailability ([2]; rat, plasma, female Wistar rats, read-out: F (oral absolute bioavailability)): 27.73 ± 0.01%
bioavailability ([2]; rat, plasma, male Wistar rats, read-out: F (oral absolute bioavailability)): 26.02 ± 0.03%
AUC(0-inf) [2, 11]: 41300 ± 4200 ng·h/mL
Cmax [2, 11]: 21.8 ± 1.33 µg/mL
Tmax [2, 11]: 0.5 h
half-life [2, 11]: 5.34 ± 0.48 h
AUC(0-inf) [2, 12]: 42800 ± 2240 ng·h/mL
Cmax [2, 12]: 20.4 ± 1.49 µg/mL
Tmax [2, 12]: 0.5 h
half-life [2, 12]: 4.99 ± 0.52 h
solubility [3]: 1.4 ± 0.17 µg/mL (≈ 3.24 µM)
Forced tests results, Mean ±SD ([4]; Hydrolysis (Acid)): 0.95±0.02
Forced tests results, Mean ±SD ([4]; Hydrolysis (Base)): 0.92±0.03
Forced tests results, Mean ±SD ([4]; Hydrolysis (Buffer pH=7)): 0.94±0.02
Forced tests results, Mean ±SD ([4]; Oxidative stress (H2O2-3%)): 0.93±0.04
Forced tests results, Mean ±SD ([4]; Oxidative stress (H2O2-30%)): 0.91±0.02
Forced tests results, Mean ±SD ([4]; Photodegradation (Acid)): 0.94±0.02
Forced tests results, Mean ±SD ([4]; Photodegradation (Base)): 0.94±0.01
Forced tests results, Mean ±SD ([4]; Photodegradation (Buffer pH=7)): 0.95±0.02
Forced tests results, Mean ±SD ([4]; Thermal Degradation (solid phase)): 0.96±0.03
AZGH101 recovered intact ([4]; in all of the examined stress conditions): more than 90%
logP [5]: 3.82 ± 0.001
Structure (SMILES): CS(=O)(=O)c1ccc(-c2cc(C(=O)O)c3cc(C(=O)c4ccccc4)ccc3n2)cc1 [AZGH101, 6-benzoyl-2-(4-(methylsulfonyl)phenyl)quinoline-4-carboxylic acid]
IC50 (COX-2): 77 nM
selectivity index (COX-1 IC50 / COX-2 IC50) (COX-2): less than 500
tendency against inhibition of COX-2, times greater than ketoprofen (COX-2; relative to ketoprofen): about 10 times

Structure (SMILES): Cc1ccc(-c2cc(C(F)(F)F)nn2-c2ccc(S(N)(=O)=O)cc2)cc1 [celecoxib]
solubility in water [6]: 3.3 µg/mL (≈ 8.65 µM)
